From ChEMBL document CHEMBL4261582, “Natural products as inhibitors of Leishmania major dihydroorotate dehydrogenase” (Eur J Med Chem, 2018) come the findings set out here.

Chain of Dihydroorotate dehydrogenase (quinone), mitochondrial (Homo sapiens) (Q02127 whole entry): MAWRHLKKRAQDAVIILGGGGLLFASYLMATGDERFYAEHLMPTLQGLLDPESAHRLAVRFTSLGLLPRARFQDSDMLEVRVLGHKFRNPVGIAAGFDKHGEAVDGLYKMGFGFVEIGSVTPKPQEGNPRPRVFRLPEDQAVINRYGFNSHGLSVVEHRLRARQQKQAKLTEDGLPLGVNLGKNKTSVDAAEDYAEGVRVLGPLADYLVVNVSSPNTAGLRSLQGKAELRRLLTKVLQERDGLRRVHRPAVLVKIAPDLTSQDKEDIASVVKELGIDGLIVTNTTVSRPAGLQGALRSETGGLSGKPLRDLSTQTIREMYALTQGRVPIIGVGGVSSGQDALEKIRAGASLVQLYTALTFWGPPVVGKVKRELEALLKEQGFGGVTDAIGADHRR

For one assay, the target named is T1, Dihydroorotate dehydrogenase (fumarate) (Leishmania major) (UniProt Q4QEW7).
T1 sequence (whole entry): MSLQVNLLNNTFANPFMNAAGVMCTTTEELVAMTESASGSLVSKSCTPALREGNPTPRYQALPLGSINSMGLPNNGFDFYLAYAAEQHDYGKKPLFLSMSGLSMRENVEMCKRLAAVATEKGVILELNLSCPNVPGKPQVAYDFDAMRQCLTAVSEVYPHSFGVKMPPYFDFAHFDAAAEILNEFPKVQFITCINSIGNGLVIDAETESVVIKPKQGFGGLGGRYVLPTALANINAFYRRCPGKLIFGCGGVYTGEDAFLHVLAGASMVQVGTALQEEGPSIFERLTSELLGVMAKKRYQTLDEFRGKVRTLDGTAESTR
Nature of the assay: Binding affinity to Leishmania major DHODH assessed as change in melting temperature at 500 uM by SYPRO orange dye-based differential scanning fluorimetry.
Conditions: not given
(In general: Differential scanning fluorimetry follows unfolding on heating by fluorescence.)
Consider `C=C1C(=O)O[C@@H]2C[C@H](C)[C@@]3(O)C[C@H](O)[C@@](C)(C[C@@H](OC(=O)C(C)C)[C@@H]12)O3` [TAGITININ A], for which the ΔTm (usually the change in melting temperature against a reference sample) is -0.06 °C.

The next assay concerns Trypanosoma brucei rhodesiense. Nature of the assay: Antitrypanosomal activity against Trypanosoma brucei rhodesiense STIB 900 trypomastigotes after 72 hrs by Alamar Blue assay. Type of assay: functional, organism-based. To be noted: STIB 900, 72 h. A general note: Alamar Blue is a resazurin reagent that responds to reducing activity.
Regarding `O=c1cc(-c2ccc(O)cc2)oc2cc(O[C@@H]3O[C@H](CO)[C@@H](O)[C@H](O)[C@H]3O)cc(O)c12` [APIGETRIN], the IC50 (in general, the concentration that inhibits the measured activity by half) was found to be 52.5 µM.

With `O=C(O)/C=C/c1ccccc1` [CINNAMIC ACID], the IC50 is 223 µM.

Turning to `O=c1c(O)c(-c2cc(O)c(O)c(O)c2)oc2cc(O)cc(O)c12` [MYRICETIN], the midpoint of inhibition, the IC50, lay at 50 µM.

Consider `COc1ccc(-c2oc3cc(O)cc(O)c3c(=O)c2O)cc1O` [TAMARIXETIN], for which the IC50 turned out to be 46.8 µM.

A further assay has as its target T1, Dihydroorotate dehydrogenase (fumarate) (Leishmania major). The assay is described as follows: Binding affinity to Leishmania major DHODH assessed as change in melting temperature at 100 uM by SYPRO orange dye-based differential scanning fluorimetry.
Conditions: not given
As for `C=C1C(=O)O[C@@H]2C[C@H](C)[C@@]3(O)C[C@H](O)[C@@](C)(C[C@@H](OC(=O)C(C)C)[C@@H]12)O3` [TAGITININ A], the thermal shift (ΔTm) is -0.07 °C.

A further assay has as its system Leishmania donovani. Nature of the assay: Antileishmanial activity against Leishmania donovani MHOM/ET/67/L82 amastigotes after 72 hrs by Alamar Blue assay. It is filed as functional, organism-based. To be noted: MHOM/ET/67/L82, 72 h.
`O=c1cc(-c2ccc(O)cc2)oc2cc(O[C@@H]3O[C@H](CO)[C@@H](O)[C@H](O)[C@H]3O)cc(O)c12` [APIGETRIN] returned an IC50 of 4.86 µM.

Turning to `O=C(O)/C=C/c1ccccc1` [CINNAMIC ACID], the concentration for half-maximal inhibition (IC50) turned out to be 37.8 µM.

`O=c1c(O)c(-c2cc(O)c(O)c(O)c2)oc2cc(O)cc(O)c12` [MYRICETIN] registered a concentration for half-maximal inhibition (IC50) of 4.08 µM.

Compound `COc1ccc(-c2oc3cc(O)cc(O)c3c(=O)c2O)cc1O` [TAMARIXETIN] came in with an IC50 of 53.1 µM.

The next assay addresses T1, Dihydroorotate dehydrogenase (fumarate) (Leishmania major). Nature of the assay: Binding affinity to Leishmania major DHODH assessed as change in melting temperature at 1000 uM by SYPRO orange dye-based differential scanning fluorimetry.
Conditions: not given
As to `C=C1C(=O)O[C@@H]2C[C@H](C)[C@@]3(O)C[C@H](O)[C@@](C)(C[C@@H](OC(=O)C(C)C)[C@@H]12)O3` [TAGITININ A], the ΔTm was -0.19 °C.

The next assay deals with Leishmania amazonensis. Nature of the assay: Antileishmanial activity against Leishmania amazonensis promastigotes. Type of assay: functional, organism-based.
Conditions: not given
On to `O=C(O)/C=C/c1ccccc1` [CINNAMIC ACID], for which the midpoint of inhibition, the IC50, lay at 15.5 µM.

In another assay the target is T1, Dihydroorotate dehydrogenase (fumarate) (Leishmania major). Nature of the assay: Inhibition of recombinant oligo-histidine-tagged Leishmania major DHODH expressed in Escherichia coli BL21(DE3) cells at 150 uM using DHO as substrate measured after 60 secs.
Conditions: not given
For `C=C1C(=O)O[C@@H]2[C@H]3C(C)=CC(=O)C3=C(C)C[C@@H](OC(=O)/C(C)=C/C)[C@@H]12`, the inhibition (usually the drop in the measured response relative to a control, in per cent) turned out to be 64%.

For a further assay, the system named is Leishmania braziliensis. The assay is described as follows: Antileishmanial activity against Leishmania braziliensis H3227 MHOM/BR/94/H-3227 promastigotes after 72 hrs by MTT assay. It is filed as functional, organism-based. To be noted: H3227 MHOM/BR/94/H-3227, 72 h. (Formazan colour is commonly taken as a measure of viable cells.)
`C=C1C(=O)O[C@@H]2C[C@H](C)[C@@]3(O)C[C@H](O)[C@@](C)(C[C@@H](OC(=O)C(C)C)[C@@H]12)O3` [TAGITININ A]: the IC50 was found to be 20.4 µM.

Another assay has as its target T1, Dihydroorotate dehydrogenase (fumarate) (Leishmania major). The assay is described as follows: Binding affinity to Leishmania major DHODH assessed as change in melting temperature at 100 uM by differential scanning fluorimetry-based ThermoFMN assay.
Conditions: not given
Turning to `C=C1C(=O)O[C@@H]2C[C@H](C)[C@@]3(O)C[C@H](O)[C@@](C)(C[C@@H](OC(=O)C(C)C)[C@@H]12)O3` [TAGITININ A], the ΔTm was -0.26 °C.

For the next assay, the target named is T2, Dihydroorotate dehydrogenase (fumarate) (Leishmania major, UniProt Q4QEW7).
T2 sequence (Q4QEW7 whole entry): T1 sequence (whole entry)
The assay is described as follows: Inhibition of recombinant oligo-histidine-tagged Leishmania major DHODH expressed in Escherichia coli BL21(DE3) cells using DHO as substrate measured after 60 secs. The following applies: read-out: IC50.
Consider `C=C1C(=O)O[C@@H]2[C@H]3C(C)=CC(=O)C3=C(C)C[C@@H](OC(=O)/C(C)=C/C)[C@@H]12`, for which the concentration for half-maximal inhibition (IC50) came out at 26.8 µM.

In the case of `O=c1cc(-c2ccc(O)cc2)oc2cc(O[C@@H]3O[C@H](CO)[C@@H](O)[C@H](O)[C@H]3O)cc(O)c12` [APIGETRIN], the IC50 turned out to be 105 µM.

For `O=C(O)/C=C/c1ccccc1` [CINNAMIC ACID], the concentration for half-maximal inhibition (IC50) amounted to 392 µM.

For the compound `C=C1C(=O)O[C@@H]2C[C@H](C)[C@@]3(O)C[C@H](O)[C@@](C)(C[C@@H](OC(=O)C(C)C)[C@@H]12)O3` [TAGITININ A], the IC50 was 796 µM.

Take `COc1ccc(-c2oc3cc(O)cc(O)c3c(=O)c2O)cc1O` [TAMARIXETIN]: the IC50 turned out to be 93.7 µM.

Another assay addresses Dihydroorotate dehydrogenase (quinone), mitochondrial (Homo sapiens) (UniProt Q02127). Nature of the assay: Inhibition of human DHODH at 100 uM.
Conditions: not given
For the compound `C=C1C(=O)O[C@@H]2[C@H]3C(C)=CC(=O)C3=C(C)C[C@@H](OC(=O)/C(C)=C/C)[C@@H]12`, the inhibition came to 3%.

`O=c1cc(-c2ccc(O)cc2)oc2cc(O[C@@H]3O[C@H](CO)[C@@H](O)[C@H](O)[C@H]3O)cc(O)c12` [APIGETRIN] displayed an inhibition of 10%.

For `O=c1c(O)c(-c2cc(O)c(O)c(O)c2)oc2cc(O)cc(O)c12` [MYRICETIN], the inhibition turned out to be 41%.

Consider `COc1ccc(-c2oc3cc(O)cc(O)c3c(=O)c2O)cc1O` [TAMARIXETIN], for which the inhibition worked out at 29%.

The target in another assay is T1, Dihydroorotate dehydrogenase (fumarate) (Leishmania major). The assay is described as follows: Binding affinity to Leishmania major DHODH assessed as change in melting temperature at 500 uM by differential scanning fluorimetry-based ThermoFMN assay.
Conditions: not given
Turning to `C=C1C(=O)O[C@@H]2C[C@H](C)[C@@]3(O)C[C@H](O)[C@@](C)(C[C@@H](OC(=O)C(C)C)[C@@H]12)O3` [TAGITININ A], the ΔTm is -0.32 °C.

The target is the same in another assay. Nature of the assay: Inhibition of recombinant oligo-histidine-tagged Leishmania major DHODH expressed in Escherichia coli BL21(DE3) cells at 100 uM using DHO as substrate measured after 60 secs.
Conditions: not given
Regarding `O=c1cc(-c2ccc(O)cc2)oc2cc(O[C@@H]3O[C@H](CO)[C@@H](O)[C@H](O)[C@H]3O)cc(O)c12` [APIGETRIN], the inhibition was determined as 47%.

Turning to `O=c1c(O)c(-c2cc(O)c(O)c(O)c2)oc2cc(O)cc(O)c12` [MYRICETIN], the inhibition was 67%.

Turning to `COc1ccc(-c2oc3cc(O)cc(O)c3c(=O)c2O)cc1O` [TAMARIXETIN], the inhibition came to 46%.

For another assay, the system named is Trypanosoma cruzi. Nature of the assay: Antitrypanosomal activity against Trypanosoma cruzi Tulahuen C2C4 trypomastigotes infected in rat skeletal myoblasts L-6 cells after 96 hrs by CPRG/Nonidet reagent based spectrophotometric method. Type of assay: functional, organism-based. The following applies: Tulahuen C2C4, L6, 96 h.
With `O=c1cc(-c2ccc(O)cc2)oc2cc(O[C@@H]3O[C@H](CO)[C@@H](O)[C@H](O)[C@H]3O)cc(O)c12` [APIGETRIN], inhibition was half-maximal at 69.4 µM (IC50).

Compound `O=C(O)/C=C/c1ccccc1` [CINNAMIC ACID] came in with a 50% inhibitory concentration (IC50) of 203 µM.

On to `O=c1c(O)c(-c2cc(O)c(O)c(O)c2)oc2cc(O)cc(O)c12` [MYRICETIN], for which inhibition was half-maximal at 94.3 µM (IC50).

The compound `COc1ccc(-c2oc3cc(O)cc(O)c3c(=O)c2O)cc1O` [TAMARIXETIN] came in with an IC50 of 20.2 µM.

The target of another assay is T1, Dihydroorotate dehydrogenase (fumarate) (Leishmania major). Nature of the assay: Binding affinity to Leishmania major DHODH assessed as change in melting temperature at 1000 uM by differential scanning fluorimetry-based ThermoFMN assay.
Conditions: not given
Regarding `C=C1C(=O)O[C@@H]2C[C@H](C)[C@@]3(O)C[C@H](O)[C@@](C)(C[C@@H](OC(=O)C(C)C)[C@@H]12)O3` [TAGITININ A], the ΔTm is -0.52 °C.
